Conditions: in water

O=[N+]([O-])c1ccc(/C=C/c2ccc([N+](=O)[O-])cc2S(=O)(=O)[O-])c(S(=O)(=O)[O-])c1.[Na+].[Na+]
Conditions | solubility (mole fraction)
284.85 K | 0.0013
290.35 K | 0.0017
293.05 K | 0.00197
296.45 K | 0.00228
301.45 K | 0.00302
304.55 K | 0.00353
307.75 K | 0.00394
309.85 K | 0.00434
312.05 K | 0.00498
316.25 K | 0.00595
319.25 K | 0.00674
321.95 K | 0.00756

— BigSolDB 2.1
